Laboratory results reported in PubChem BioAssay (NCI).
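Each compound was tested at five concentrations against cells in 96-well plates for 48 hours. GI50 marks 50% less growth. Definition used: TGI = concentration required for complete inhibition of growth.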

What was measured:
Assay in all cases: inhibition of tumour cell growth, NCI panel, 48 h
[1] = tested on: 786-0 renal
[2] = tested on: A498 renal
[3] = tested on: A549 NSCLC
[4] = tested on: ACHN renal
[5] = tested on: BT-549 breast
[6] = tested on: CAKI-1 renal
[7] = tested on: COLO 205 colon
[8] = tested on: DU-145 prostate
[9] = tested on: EKVX NSCLC
[10] = tested on: HCC-2998 colon
[11] = tested on: HCT-116 colon
[12] = tested on: HCT-15 colon
[13] = tested on: HL-60(TB) leukemia
[14] = tested on: HOP-92 NSCLC
[15] = tested on: HS 578T breast
[16] = tested on: HT29 colon
[17] = tested on: IGROV1 ovarian
[18] = tested on: K-562 leukemia
[19] = tested on: KM12 colon
[20] = tested on: LOX IMVI melanoma
[21] = tested on: M14 melanoma
[22] = tested on: MALME-3M melanoma
[23] = tested on: MCF7 breast
[24] = tested on: MDA-MB-231 breast
[25] = tested on: MDA-MB-435
[26] = tested on: MOLT-4 leukemia
[27] = tested on: NCI-H226 lung
[28] = tested on: NCI-H23 lung
[29] = tested on: NCI-H460 lung
[30] = tested on: NCI-H522 lung
[31] = tested on: NCI/ADR-RES ovarian
[32] = tested on: OVCAR-3 ovarian
[33] = tested on: OVCAR-4 ovarian
[34] = tested on: OVCAR-5 ovarian
[35] = tested on: OVCAR-8 ovarian
[36] = tested on: RPMI-8226 leukemia
[37] = tested on: RXF 393 renal
[38] = tested on: SF-268 CNS
[39] = tested on: SF-539 CNS
[40] = tested on: SK-MEL-2 melanoma
[41] = tested on: SK-MEL-28 melanoma
[42] = tested on: SK-MEL-5 melanoma
[43] = tested on: SK-OV-3 ovarian
[44] = tested on: SN12C renal
[45] = tested on: SNB-19 CNS
[46] = tested on: SNB-75 CNS
[47] = tested on: SW-620 colon
[48] = tested on: T-47D breast
[49] = tested on: TK-10 renal
[50] = tested on: U251 CNS
[51] = tested on: UACC-257 melanoma
[52] = tested on: UACC-62 melanoma
[53] = tested on: UO-31 renal

SMILES: O=C(Cc1n[nH]c(=O)c2ccccc12)OCc1c(Cl)cccc1Cl
- GI50 [1]: 15.1 µM
- TGI [1]: > 100 µM
- GI50 [2]: > 100 µM
- TGI [2]: > 100 µM
- GI50 [3]: > 100 µM
- TGI [3]: > 100 µM
- GI50 [4]: 82 µM
- TGI [4]: > 100 µM
- GI50 [5]: 16.3 µM
- TGI [5]: > 100 µM
- GI50 [6]: 26.2 µM
- TGI [6]: > 100 µM
- GI50 [7]: 5.63 µM
- TGI [7]: > 100 µM
- GI50 [8]: 53.4 µM
- TGI [8]: > 100 µM
- GI50 [9]: > 100 µM
- TGI [9]: > 100 µM
- GI50 [10]: 50.4 µM
- TGI [10]: > 100 µM
- GI50 [11]: 3.64 µM
- TGI [11]: > 100 µM
- GI50 [12]: 1.74 µM
- TGI [12]: > 100 µM
- GI50 [13]: 6.53 µM
- TGI [13]: > 100 µM
- GI50 [14]: > 100 µM
- TGI [14]: > 100 µM
- GI50 [15]: 17.4 µM
- TGI [15]: > 100 µM
- GI50 [16]: 15.6 µM
- TGI [16]: > 100 µM
- GI50 [17]: > 100 µM
- TGI [17]: > 100 µM
- GI50 [18]: 4.19 µM
- TGI [18]: > 100 µM
- GI50 [19]: 24.2 µM
- TGI [19]: > 100 µM
- GI50 [20]: 5.16 µM
- TGI [20]: > 100 µM
- GI50 [21]: > 100 µM
- TGI [21]: > 100 µM
- GI50 [22]: 48.5 µM
- TGI [22]: > 100 µM
- GI50 [23]: > 100 µM
- TGI [23]: > 100 µM
- GI50 [24]: 69.8 µM
- TGI [24]: > 100 µM
- GI50 [25]: > 100 µM
- TGI [25]: > 100 µM
- GI50 [26]: 4.07 µM
- TGI [26]: > 100 µM
- GI50 [27]: 9.97 µM
- TGI [27]: > 100 µM
- GI50 [28]: > 100 µM
- TGI [28]: > 100 µM
- GI50 [29]: 2.39 µM
- TGI [29]: > 100 µM
- GI50 [30]: > 100 µM
- TGI [30]: > 100 µM
- GI50 [31]: 93.6 µM
- TGI [31]: > 100 µM
- GI50 [32]: 41.9 µM
- TGI [32]: > 100 µM
- GI50 [33]: > 100 µM
- TGI [33]: > 100 µM
- GI50 [34]: > 100 µM
- TGI [34]: > 100 µM
- GI50 [35]: 36.5 µM
- TGI [35]: > 100 µM
- GI50 [36]: 82.4 µM
- TGI [36]: > 100 µM
- GI50 [37]: 24.1 µM
- TGI [37]: 68.3 µM
- GI50 [38]: 9.21 µM
- TGI [38]: > 100 µM
- GI50 [39]: 10.1 µM
- TGI [39]: > 100 µM
- GI50 [40]: > 100 µM
- TGI [40]: > 100 µM
- GI50 [41]: > 100 µM
- TGI [41]: > 100 µM
- GI50 [42]: 4.18 µM
- TGI [42]: > 100 µM
- GI50 [43]: 12.8 µM
- TGI [43]: > 100 µM
- GI50 [44]: > 100 µM
- TGI [44]: > 100 µM
- GI50 [45]: 15.6 µM
- TGI [45]: > 100 µM
- GI50 [46]: 25.8 µM
- TGI [46]: > 100 µM
- GI50 [47]: 49.8 µM
- TGI [47]: > 100 µM
- GI50 [48]: 24.6 µM
- TGI [48]: > 100 µM
- GI50 [49]: 41 µM
- TGI [49]: > 100 µM
- GI50 [50]: 8.39 µM
- TGI [50]: > 100 µM
- GI50 [51]: > 100 µM
- TGI [51]: > 100 µM
- GI50 [52]: 8.55 µM
- TGI [52]: > 100 µM
- GI50 [53]: > 100 µM
- TGI [53]: > 100 µM
